Results reported in US20040009921A1, “Methods and compositions for the treatment of cancer” (Allergan, Inc., priority 2002, published 2004).

Assays:
[1] = system: β-galactosidase; assay: Western blotting of β-galactosidase control (LacZ) in HEK293 cells; type: cell-based; settings: HEK293 cotransfected with LacZ, 0.1 μM
Experimental: (A) Western blotting analysis of HEK293 cells transfected with a combination of expression vectors for LacZ (2 μg), V5-tagged β-catenin(4 μg), and Flag-tagged RXRα (2 μg) as indicated below the gels. […] RXRα protein was measured using an HRP-conjugated mouse monoclonal antibody against the Flag tag. […] Endogenous and overexpressed β-catenin were detected using a rabbit polyclonal antibody as indicated by “Total” whereas overexpressed β-catenin was analyzed using a mouse monoclonal antibody against the V5 tag. Endogenous and overexpressed RXRα were detected by a rabbit polyclonal antibody against RXRα, whereas overexpressed RXRα was determined by an HRP-conjugated mouse monoclonal antibody against the Flag tag. (D) Western blotting analysis of HEK293 cells transfected with a fixed amount of β-catenin (4 μg) plus an increasing amount of RXRα as indicated at the top.
HEK293 cells were seeded at a density of 2×10 per dish were seeded into 100-mm dishes and cultured overnight in DMEM containing 10% FBS. Cells were transfected with 1-4 μg of various cDNA or parental expression vectors (8 μg of DNA in total) using Lipofectamine®. […]
Total cell lysates were homogenized by passing through a QIAshredder® (Qiagen) and cleared from insoluble materials by centriftigation at 12,000 g. Protein concentration was determined using a Bradford total protein assay kit (Bio-Rad). […]

[2] = system: β-catenin mRNA; assay: Northern blotting of β-catenin mRNA in RBC cells; type: cell-based, human; settings: RBC cells treated overnight (17 hours)
Experimental: (§1) (A) Western blotting analysis of HEK293 cells transfected with a combination of expression vectors for LacZ (2 μg), V5-tagged β-catenin(4 μg), and Flag-tagged RXRα (2 μg) as indicated below the gels. […] RXRα protein was measured using an HRP-conjugated mouse monoclonal antibody against the Flag tag. (B) Western blotting analysis of stable cell line RBC that overexpresses both β-catenin and RXRα. […] (C) Western blotting analysis of stable cell line CAT that overexpresses only β-catenin. […] Endogenous and overexpressed β-catenin were detected using a rabbit polyclonal antibody as indicated by “Total” whereas overexpressed β-catenin was analyzed using a mouse monoclonal antibody against the V5 tag. Endogenous and overexpressed RXRα were detected by a rabbit polyclonal antibody against RXRα, whereas overexpressed RXRα was determined by an HRP-conjugated mouse monoclonal antibody against the Flag tag. (D) Western blotting analysis of HEK293 cells transfected with a fixed amount of β-catenin (4 μg) plus an increasing amount of RXRα as indicated at the top. […] (E) Western blotting analysis of HEK293, CV-1, and Hela cells transfected with 2 μg of RXRα and 4 μg of wild type or mutant β-catenin. α. […] (F) Northern blotting analysis of RBC cells using β-catenin as a probe.

[3] = target: T1, RXRα (Homo sapiens, UniProt P19793); assay: Western blotting of RXRα protein in HEK293 cells and stable lines; type: cell-based
T1 construct: The RXRα coding region was amplified from this clone by PCR; expressed in transfected cells; host or cells: HEK293 (transient; CAT transfected with RXRα)
T1 sequence (P19793 1-462): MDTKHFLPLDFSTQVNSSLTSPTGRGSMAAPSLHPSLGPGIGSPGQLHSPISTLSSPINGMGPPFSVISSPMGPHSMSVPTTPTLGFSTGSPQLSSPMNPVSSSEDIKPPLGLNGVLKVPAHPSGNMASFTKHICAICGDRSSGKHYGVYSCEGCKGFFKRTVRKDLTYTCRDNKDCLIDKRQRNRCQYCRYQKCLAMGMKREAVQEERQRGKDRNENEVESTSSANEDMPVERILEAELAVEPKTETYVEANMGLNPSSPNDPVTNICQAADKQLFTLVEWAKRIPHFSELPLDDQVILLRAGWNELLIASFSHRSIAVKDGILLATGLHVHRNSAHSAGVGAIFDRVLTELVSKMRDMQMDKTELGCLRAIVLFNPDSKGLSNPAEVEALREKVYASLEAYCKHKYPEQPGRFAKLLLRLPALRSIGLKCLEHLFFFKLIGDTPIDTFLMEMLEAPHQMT
Experimental: as §1
FIG. 4 Receptor and ligand specificity in degradation of β-catenin by retinoid receptors. HEK293 cells transfected with expression vectors for β-catenin (4 μg) and RXRs (2 μg) or RARs (2 μg) and treated with ligands at concentrations indicated at the top of each gel. Protein levels were detected by Western blotting as shown in this figure. β-catenin and RARs were detected by HRP-conjugated antibodies against their V5 tag. RXRs were detected by HRP-conjugated antibodies against their Flag tag. […] In this experiment, the amount of expression vectors for RXRα and RARs used in transfection was 1 μg.
HEK293 cells were seeded at a density of […] per dish were seeded into 100-mm dishes and cultured overnight in DMEM containing 10% FBS. Cells were transfected with 1-4 μg of various cDNA or parental expression vectors (8 μg of DNA in total) using Lipofectamine®. Five hours after transfection, cells were fed with fresh culture media DMEM containing 10% charcoal-treated FBS with vehicle DMSO or retinoids prepared in DMSO. After a given time of treatment, cells were harvested and lysed in a buffer containing 1% Nonidet® P-40, 30 mM Tris-HCl (pH7.4), 0.5 mM EDTA (pH 8.0), 150 mM NaCl, 10% glycerol, 1 mM sodium orthovanadate, 40 mM NaF, 0.5 mM phenylmethylsulfonyl fluoride (PMSF) and a cocktail of protease inhibitors (Merck).
Total cell lysates were homogenized by passing through a QIAshredder® (Qiagen) and cleared from insoluble materials by centriftigation at 12,000 g. Protein concentration was determined using a Bradford total protein assay kit (Bio-Rad). Total cell lysates were electrophoresed using a 4-12% SDS-PAGE gradient gel and transferred to either nitrocellulose or PVDF filter membranes. The membranes were blocked with 10% non-fat milk reconstituted from dairy milk powder in phosphate-buffered saline (PBS) containing 0.1% Tween®-20 (PBST). The membranes were incubated with primary antibodies at room temperature for 2 hours or at 4° C. for overnight. After the removal of unbound antibodies, membranes were incubated with horseradish peroxidase-conjugated secondary antibodies for one hour at room temperature and washed five times with PBST.

Compound: CC(/C=C/[C@@H]1C[C@]1(C)c1ccc2c(c1)C(C)(C)CCC2(C)C)=C\C(=O)O [AGN 4204]
- expression of β-galactosidase protein from LacZ control [1]: not significantly affected
- β-catenin mRNA level [2]: no effects
- endogenous RXRα protein ([3]; CAT cells, 0.1 μM, 17 hours): a decrease of the endogenous RXRα was observed
- amount of RXRα protein ([3]; HEK293, independent of β-catenin, 0.1 μM): a reduction inn the amount of RXRα
- degradation of RXRα ([3]; HEK293 co-expressing RXRα with RARα): RXR-ligand-dependent degradation
- concentration effective in inducing degradation of RXRα ([3]; HEK293 transfected with β-catenin and RXRα, 17 hours): 1 nM
- time at which degradation of RXRα was first detected ([3]; RBC cells, 0.1 μM): 1 h
